The target of the assay is T1, human PTH1 receptor (Homo sapiens, UniProt Q03431).
T1 sequence (Q03431 27-593): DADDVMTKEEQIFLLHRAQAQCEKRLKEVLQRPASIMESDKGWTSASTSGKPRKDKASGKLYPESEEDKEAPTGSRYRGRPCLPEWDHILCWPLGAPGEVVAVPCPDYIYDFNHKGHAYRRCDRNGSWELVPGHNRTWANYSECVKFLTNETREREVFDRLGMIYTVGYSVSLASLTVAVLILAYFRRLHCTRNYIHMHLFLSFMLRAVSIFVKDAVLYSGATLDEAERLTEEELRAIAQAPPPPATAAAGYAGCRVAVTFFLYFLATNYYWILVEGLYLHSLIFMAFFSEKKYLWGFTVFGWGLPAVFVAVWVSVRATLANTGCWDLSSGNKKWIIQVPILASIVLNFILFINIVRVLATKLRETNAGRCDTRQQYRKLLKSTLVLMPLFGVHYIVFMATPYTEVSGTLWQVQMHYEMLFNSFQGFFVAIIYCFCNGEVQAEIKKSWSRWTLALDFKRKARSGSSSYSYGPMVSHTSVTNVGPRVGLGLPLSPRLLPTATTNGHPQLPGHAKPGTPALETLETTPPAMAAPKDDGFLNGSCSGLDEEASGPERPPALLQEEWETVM
Nature of the assay: In vitro cAMP signal activity in HKRK-B7 cells (LLC-PK1 cells overexpressing the human PTH1 receptor). The format is cell-based. The conditions noted are these: HKRK-B7 cells; compound at 1×10^−3 M; cAMP produced as percentage of that produced by hPTH(1-34) at 100 nM.
`Cc1cc(N2C(=O)CNC2=O)ccc1CCS(=O)(=O)N1CCC2(CC1)N=C(C1CC(C)(C)CC(C)(C)C1)NC2=O` [Compound 952, 3-(3-methyl-4-{2-[4-oxo-2-(3,3,5,5-tetramethyl-cyclohexyl)-1,3,8-triaza-spiro[4.5]dec-1-ene-8-sulfonyl]-ethyl}-phenyl)-imidazolidine-2,4-dione]: the “cAMP production activity (%)” value amounted to 95%.
The same measure for `Cc1cc(C(=O)N(C)C)ccc1CCS(=O)(=O)N1CCC2(CC1)N=C(c1cc(C(F)(F)F)ccc1C)NC2=O` [Compound 112, 3,N,N-trimethyl-4-{2-[2-(2-methyl-5-trifluoromethyl-phenyl)-4-oxo-1,3,8-triaza-spiro[4.5]dec-1-ene-8-sulfonyl]-ethyl}-benzamide]: 77%.
With `Cc1cc(CNC(=O)OC(C)(C)C)ccc1CCS(=O)(=O)N1CCC2(CC1)N=C(C(C)(C)C)NC2=O` [Compound 162, {4-[2-(2-tert-Butyl-4-oxo-1,3,8-triaza-spiro[4.5]dec-1-ene-8-sulfonyl)-ethyl]-3-methyl-benzyl}-carbamic acid tert-butyl ester], the “cAMP production activity (%)” value is 43%.
On to `Cc1cc(CNC(=O)OC(C)(C)C)ccc1CCS(=O)(=O)N1CCC2(CC1)N=C(c1ccc(F)c(C(F)(F)F)c1)NC2=O` [Compound 164, (4-{2-[2-(4-fluoro-3-trifluoromethyl-phenyl)-4-oxo-1,3,8-triaza-spiro[4.5]dec-1-ene-8-sulfonyl]-ethyl}-3-methyl-benzyl)-carbamic acid tert-butyl ester], for which the “cAMP production activity (%)” value is 45%.
Turning to `Cc1cc(S(=O)(=O)NCC(F)(F)F)ccc1/C=C/S(=O)(=O)N1CCC2(CC1)N=C(c1cccc(C(F)(F)F)c1)NC2=O` [Compound 217, 3-methyl-4-{(E)-2-[4-oxo-2-(3-trifluoromethyl-phenyl)-1,3,8-triaza-spiro[4.5]dec-1-ene-8-sulfonyl]-vinyl}-N-(2,2,2-trifluoro-ethyl)-benzenesulfonamide], the “cAMP production activity (%)” value is 41%.
For `CN1CCCc2c(CCS(=O)(=O)N3CCC4(CC3)N=C(C3CCCCC3)NC4=O)cccc21` [Compound 747, 2-cyclohexyl-8-[2-(1-methyl-1,2,3,4-tetrahydro-quinolin-5-yl)-ethanesulfonyl]-1,3,8-triaza-spiro[4.5]dec-1-en-4-one], the “cAMP production activity (%)” value worked out at 55%.
Consider `COc1cccc(C2=NC3(CCN(S(=O)(=O)c4cccc(Cl)c4)CC3)C(=O)N2)c1` [Compound 5, 8-(3-chloro-benzenesulfonyl)-2-(3-methoxy-phenyl)-1,3,8-triaza-spiro[4.5]dec-1-en-4-one], for which the “cAMP production activity (%)” value was 2.5%.
The same measure for `CCCCC1CCC(C2=NC3(CCN(S(=O)(=O)CCc4c(C)cc(N5C(=O)CNC5=O)cc4C)CC3)C(=O)N2)CC1` (stereo not shown) [Compound 677, 3-(4-{2-[2-(4-Butyl-cyclohexyl)-4-oxo-1,3,8-triaza-spiro[4.5]dec-1-ene-8-sulfonyl]-ethyl}-3,5-dimethyl-phenyl)-imidazolidine-2,4-dione]: 69%; for `O=C1NC(C2CCC(CCC(F)(F)F)CC2)=NC12CCN(S(=O)(=O)/C=C/c1cccc3c1ccn3C[C@@H](O)CO)CC2` (stereo partly drawn) [Compound 541, 8-{(E)-2-[1-((R)-2,3-dihydroxy-propyl)-1H-indol-4-yl]-ethenesulfonyl}-2-[4-(3,3,3-trifluoro-propyl)-cyclohexyl]-1,3,8-triaza-spiro[4.5]dec-1-en-4-one]: 79%; for `Cc1cc(C(=O)N2CCS(=O)(=O)CC2)cc(C)c1/C=C/S(=O)(=O)N1CCC2(CC1)N=C(C1CCC(C)CC1)NC2=O` (stereo not shown) [Compound 1002, 8-{(E)-2-[4-(1,1-dioxo-1λ^6-thiomorpholine-4-carbonyl)-2,6-dimethyl-phenyl]-ethenesulfonyl}-2-(4-methyl-cyclohexyl)-1,3,8-triaza-spiro[4.5]dec-1-en-4-one]: 50%.
The same measure for `CCCCCCCCCC1=NC2(CCN(S(=O)(=O)CCc3c(C)cc(C(=O)N4CCCC4)cc3C)CC2)C(=O)N1` [Compound 980, 8-{2-[2,6-Dimethyl-4-(pyrrolidine-1-carbonyl)-phenyl]-ethanesulfonyl}-2-nonyl-1,3,8-triaza-spiro[4.5]dec-1-en-4-one]: 85%; for `CC(=O)NNC(=O)c1cc(C)c(CCS(=O)(=O)N2CCC3(CC2)N=C(C2CCC(CCC(F)(F)F)CC2)NC3=O)c(C)c1` (stereo not shown) [Compound 769, 3,5-dimethyl-4-(2-{4-oxo-2-[4-(3,3,3-trifluoro-propyl)-cyclohexyl]-1,3,8-triaza-spiro[4.5]dec-1-ene-8-sulfonyl}-ethyl)-benzoic acid N′-acetyl-hydrazide]: 55%; for `O=C1NC(C2CCCCC2)=NC12CCN(S(=O)(=O)/C=C/c1cc3cc[nH]c3cc1C(F)(F)F)CC2` [Compound 492, 2-cyclohexyl-8-[(E)-2-(6-trifluoromethyl-1H-indol-5-yl)-ethenesulfonyl]-1,3,8-triaza-spiro[4.5]dec-1-en-4-one]: 37%.
With `O=C(CCc1ccccc1)N1CCCC(C2=NC3(CCN(S(=O)(=O)CCc4cccc5ccccc45)CC3)C(=O)N2)C1` (stereo not shown) [Compound 429, 8-(2-naphthalen-1-yl-ethanesulfonyl)-2-[1-(3-phenyl-propionyl)-piperidin-3-yl]-1,3,8-triaza-spiro[4.5]dec-1-en-4-one], the “cAMP production activity (%)” value came to 38%.
The same measure for `CC(=O)Nc1ccc(CCS(=O)(=O)N2CCC3(CC2)N=C(C2CCC(CCCF)CC2)NC3=O)c(C)c1` (stereo not shown) [Compound 1064, N-[4-(2-{2-[4-(3-Fluoro-propyl)-cyclohexyl]-4-oxo-1,3,8-triaza-spiro[4.5]dec-1-ene-8-sulfonyl}-ethyl)-3-methyl-phenyl]-acetamide]: 73%; for `Cc1cc(N(C)C(N)=O)cc(C)c1CCS(=O)(=O)N1CCC2(CC1)N=C(CCCCCCCCC(F)(F)F)NC2=O` [Compound 1046, 1-(3,5-dimethyl-4-{2-[4-oxo-2-(9,9,9-trifluoro-nonyl)-1,3,8-triaza-spiro[4.5]dec-1-ene-8-sulfonyl]-ethyl}-phenyl)-1-methyl-urea]: 101%.
The same measure for `Cc1cc(OCCC(O)CO)cc(C)c1CCS(=O)(=O)N1CCC2(CC1)N=C(c1ccc(F)c(C(F)(F)F)c1)NC2=O` (stereo not shown) [Compound 801, 8-{2-[4-(3,4-dihydroxy-butoxy)-2,6-dimethyl-phenyl]-ethanesulfonyl}-2-(4-fluoro-3-trifluoromethyl-phenyl)-1,3,8-triaza-spiro[4.5]dec-1-en-4-one]: 103%; for `CC(=O)N(CCO)c1cc(C)c(/C=C/S(=O)(=O)N2CCC3(CC2)N=C(c2cccc(OC(F)(F)F)c2)NC3=O)cc1F` [Compound 717, N-(2-Fluoro-5-methyl-4-{(E)-2-[4-oxo-2-(3-trifluoromethoxy-phenyl)-1,3,8-triaza-spiro[4.5]dec-1-ene-8-sulfonyl]-vinyl}-phenyl)-N-(2-hydroxy-ethyl)-acetamide]: 111%; for `Cc1cc(C(=O)N2CCC(C)(O)CC2)cc(C)c1/C=C/S(=O)(=O)N1CCC2(CC1)N=C(c1ccc(OCC(F)(F)F)c(Cl)c1)NC2=O` [Compound 1216, 2-[3-chloro-4-(2,2,2-trifluoro-ethoxy)-phenyl]-8-{(E)-2-[4-(4-hydroxy-4-methyl-piperidine-1-carbonyl)-2,6-dimethyl-phenyl]-ethenesulfonyl}-1,3,8-triaza-spiro[4.5]dec-1-en-4-one]: 61%.

The record behind these values is patent publication US9169254B2, “Spiroimidazolone derivative” (Chugai Seiyaku Kabushiki Kaisha, priority 2009, dated 2015).
